The record followed here is US5733879A, “Peptides and proteins, process for their preparation and their use as cholesterol acceptors” (N.V. Innogenetics, S.A., priority 1992, dated 1998).

Where no end group is shown, it is not given here.

This assay is described as follows: Turbidity decrease at 325 nm on complex formation with DMPC vesicles (lipid binding). Conditions: from turbidity decrease with DMPC vesicles, 15-25° C. As for the experimental part:
FIG. 1 represents the turbidity decrease (on the y-axis, expressed as E/Eo, with E being the turbidity measured at different temperature points and Eo being the turbidity measured at 15° C.) at 325 nm upon the formation of complexes with DMPC vesicles as a function of the temperature (°C.), (x-axis) and on which:
The formation of small discoidal particles between DMPC vesicles and the peptides was monitored by measuring the turbidity decrease at 325 nm as a function of temperature. […] The turbidity decrease initiated by the peptide-lipid association started already at 17° C., below the DMPC transition temperature and stabilized around 23° C. The turbidity decrease enables to determine the binding affinity of lipids to the peptides of the invention. M 1 has a strong lipid binding capacity while 18A and M4 have quite similar lipid binding affinity. The lipid binding of M3 is low compared with the other peptides.

Regarding EWLKAEYEKVEEKLKELF [M3], the “lipid binding capacity / affinity” value is listed as “low”.
For the sequence EWLEAFYKKVLEKLKELF [M4], the “lipid binding capacity / affinity” value was “quite similar”.
On to EWLKAFYKKVLEKLKELF [M1], for which the “lipid binding capacity / affinity” value is on record as “strong”.
